The record followed here is patent US9549921B2, “Heterocyclic compounds and methods of use thereof for the treatment of hepatitis C” (priority 2014, dated 2017).

The subject of assay [1] is HCV replicon genotype 1a. The assay is described as follows: HCV replicon assay, genotype 1a (cell ELISA for NS3/4A). The assay is classed as cell-based, hepatitis C virus. The method, then: (§1) The HCV NS5B inhibitory activity of the present compounds may be tested using assays known in the art. The HCV NS5B polymerase inhibitors described herein have activities in a genotype 1b replicon assay as described in the Examples. The assay is performed by incubating a replicon harboring cell-line in the presence of inhibitor for a set period of time and measuring the effect of the inhibitor on HCV replicon replication either directly by quantifying replicon RNA level, or indirectly by measuring enzymatic activity of a co-encoded reporter enzyme such as luciferase or β-lactamase. By performing a series of such measurements at different inhibitor concentrations, the effective inhibitory concentration of the inhibitor (EC50 or EC90) is determined. See Jan M. Vrolijk et al., A replicons-based bioassay for the measurement of interferons in patients with chronic hepatitis C, 110 J. VIROLOGICAL METHODS 201 (2003). Such assays may also be run in an automated format for high through-put screening. See Paul Zuck et al., A cell-based β-lactamase reporter gene assay for the identification of inhibitors of hepatitis C virus replication, 334 ANALYTICAL BIOCHEMISTRY 344 (2004).
(§2) Measurement of inhibition by compounds was performed using the HCV replicon system. Several different replicons encoding different HCV genotypes or mutations were used. In addition, potency measurements were made using different formats of the replicon assay, including different ways of measurements and different plating formats. See Jan M. Vrolijk et al., A replicons-based bioassay for the measurement of interferons in patients with chronic hepatitis C, 110 J. VIROLOGICAL METHODS 201 (2003); Steven S. Carroll et al., Inhibition of Hepatitis C Virus RNA Replication by 2′-Modified Nucleoside Analogs, 278(14) J. BIOLOGICAL CHEMISTRY 11979 (2003). However, the underlying principles are common to all of these determinations, and are outlined below.
(§3) Stable neomycin phosphotransferase encoding replicons-harboring cell lines were used, so all cell lines were maintained under G418 selection prior to the assay. Potency was deteremined using a cell ELISA assay with an antibody to the replicons encoded NS3/4a protease. See Caterina Trozzi et al., In Vitro Selection and Characterization of Hepatitis C Virus Serine Protease Variants Resistant to an Active-Site Peptide Inhibitor, 77(6) J. Virol. 3669 (2003). To initiate an assay, replicon cells were plated in the presence of a dilution series of test compound in the absence of G418. Typically, the assays were performed in a 96-well plate formate for manual operation, or a 384-well plate format for automated assay. Replicon cells and compound were incubated for 96 hours. At the end of the assay, cells were washed free of media and compound, and the cells were then lysed. RNA was quantified indirectly through detection of replicon-encoded NS3/4A protein levels, through an ELISA-based assay with an antibody specific for NS3/4A. IC50 determinations were calculated as a percentage of a DMSO control by fitting the data to a four-parameter fit function and the data obtained is provided in the table below.
(§4) Data for selected compounds of the present invention was obtained for genotypes 1a and 1b using this method and is provided in the table below: […]
On the technique in general: Replicon systems follow genome replication, usually without infectious particles.

The subject of assay [2] is HCV replicon genotype 1b. The assay is described as follows: HCV replicon assay, genotype 1b (cell ELISA for NS3/4A). The assay is classed as cell-based, hepatitis C virus. The procedure: as §1, §2, §3, §4
The mark [3] stands for this setting: Hepatitis C virus, 96 h, read-out: 1a IC50 (nM), HCV genotype 1a replicon cells, 96 hours incubation, NS3/4A ELISA readout, % of DMSO control.
[4] abbreviates: Hepatitis C virus, 96 h, read-out: 1b IC50 (nM), HCV genotype 1b replicon cells, 96 hours incubation, NS3/4A ELISA readout, % of DMSO control.
Where [5] appears, read: read-out: 1a IC50, HCV genotype 1a replicon cells, 96 hours incubation, NS3/4A ELISA readout, % of DMSO control.
[6] abbreviates: read-out: 1b IC50, HCV genotype 1b replicon cells, 96 hours incubation, NS3/4A ELISA readout, % of DMSO control.

Read-outs that look alike come from different tables or passages of the source.

As to `CNC(=O)c1c(-c2ccc(F)cc2)oc2cc(N(C)S(C)(=O)=O)c(C3C[C@@H](c4nc5c(F)cccc5o4)N(C)C3)cc12` (stereo partly drawn) [Example 12, 5-((5S)-5-(4-fluorobenzo[d]oxazol-2-yl)-1-methylpyrrolidin-3-yl)-2-(4-fluorophenyl)-N-methyl-6-(N-methylmethylsulfonamido)benzofuran-3-carboxamide], the IC50 came to 92.8 nM in assay [1] (setting [3]) and 37.8 nM in assay [2] (setting [4]).
Turning to `CNC(=O)c1c(-c2ccc(F)cc2)oc2cc(N(C)S(C)(=O)=O)c([C@H]3CCCN(C(=O)c4cc5cccc(C(F)(F)F)c5[nH]4)C3)cc12` [Example 40, (R)-2-(4-fluorophenyl)-N-methyl-6-(N-methylmethylsulfonamido)-5-(1-(7-(trifluoromethyl)-1H-indole-2-carbonyl)piperidin-3-yl)benzofuran-3-carboxamide], the IC50 was 142 nM in assay [1] (setting [3]) and 27.6 nM in assay [2] (setting [4]).
For the compound `CNC(=O)c1c(-c2ccc(F)cc2)oc2cc(N(C)S(C)(=O)=O)c(C3CCCN(C(=O)[C@H](NC(=O)OC(C)(C)C)c4ccccc4F)C3)cc12` (single isomer, unassigned) [Example 28], the IC50 in assay [1] (setting [5]) came to 23.9 nM; in assay [2] (setting [6]) it was 21.4 nM.
The matching figures for `CNC(=O)c1c(-c2ccc(F)cc2)oc2cc(N(C)S(C)(=O)=O)c([C@@H]3CCCN(c4nc5ccccc5[nH]4)C3)cc12` (single isomer, unassigned) [Example 45, 5-(1-(1H-benzo[d]imidazol-2-yl)piperidin-3-yl)-2-(4-fluorophenyl)-N-methyl-6-(N-methylmethylsulfonamido)benzofuran-3-carboxamide]: 225 nM and 70.9 nM.
As for `CNC(=O)c1c(-c2ccc(F)cc2)oc2cc(N(C)S(C)(=O)=O)c([C@H]3CCCN(C(=O)C(c4ccccc4)N4CCOCC4)C3)cc12` (stereo partly drawn) [Example 98, 2-(4-fluorophenyl)-N-methyl-6-[methyl(methylsulfonyl)amino]-5-{(3R)-1-[morpholin-4-yl(phenyl)acetyl]piperidin-3-yl}-1-benzofuran-3-carboxamide], the results for the IC50 in assay [1] (setting [3]) and in assay [2] (setting [4]) were 241 nM and 112 nM, respectively.
For `CNC(=O)c1c(-c2ccc(F)cc2)oc2cc(N(C)S(C)(=O)=O)c([C@H]3CCCN(C(=O)c4cc5cc(F)ccc5n4C)C3)cc12` [Example 85, 5-{(3R)-1-[(5-fluoro-1-methyl-1H-indol-2-yl)carbonyl]piperidin-3-yl}-2-(4-fluorophenyl)-N-methyl-6-[methyl(methylsulfonyl)amino]-1-benzofuran-3-carboxamide], in that order: 26 nM and 12.5 nM.
The matching figures for `CCn1c(C(=O)N2CCC[C@@H](c3cc4c(C(=O)NC)c(-c5ccc(F)cc5)oc4cc3N(C)S(C)(=O)=O)C2)cc2c(F)cccc21` [Example 33, (S)-5-(1-(1-ethyl-4-fluoro-1H-indole-2-carbonyl)piperidin-3-yl)-2-(4-fluorophenyl)-N-methyl-6-(N-methylmethylsulfonamido)benzofuran-3-carboxamide]: 130 nM and 196 nM.
For `CNC(=O)c1c(-c2ccc(F)cc2)oc2cc(N(C)S(C)(=O)=O)c(C3CCN(C)C(c4cc5c(F)cccc5[nH]4)C3)cc12` (centres unmarked) [Example 16, 5-(2-(4-fluoro-1H-indol-2-yl)-1-methylpiperidin-4-yl)-2-(4-fluorophenyl)-N-methyl-6-(N-methylmethylsulfonamido)benzofuran-3-carboxamide], in that order: 333 nM and 106 nM.
Take `CNC(=O)c1c(-c2ccc(F)cc2)oc2cc(N(C)S(C)(=O)=O)c([C@H]3CCCN(S(=O)(=O)c4ccccc4C)C3)cc12` [Example 128, 2-(4-fluorophenyl)-N-methyl-6-[methyl(methylsulfonyl)amino]-5-{(3R)-1-[(2-methylphenyl)sulfonyl]piperidin-3-yl}-1-benzofuran-3-carboxamide]: the IC50 in assay [1] (setting [3]) stood at 34.2 nM; in assay [2] (setting [4]), 24.2 nM.
Turning to `CNC(=O)c1c(-c2ccc(F)cc2)oc2cc(N(C)S(C)(=O)=O)c([C@H]3CN(C(=O)c4cc5c(F)cccc5n4C)CCO3)cc12` (single isomer, unassigned) [Example 9, 5-(4-(4-fluoro-1-methyl-1H-indole-2-carbonyl)morpholin-2-yl)-2-(4-fluorophenyl)-N-methyl-6-(N-methylmethylsulfonamido)benzofuran-3-carboxamide], the IC50 in assay [1] (setting [5]) came out at 54 nM; in assay [2] (setting [6]), 67.8 nM.
Consider `CNC(=O)c1c(-c2ccc(F)cc2)oc2cc(N(C)S(C)(=O)=O)c([C@H]3CCCN(S(=O)(=O)c4cn(CC(C)C)nc4C)C3)cc12` [Example 143, 2-(4-fluorophenyl)-N-methyl-5-[(3R)-1-{[3-methyl-1-(2-methylpropyl)-1H-pyrazol-4-yl]sulfonyl}piperidin-3-yl]-6-[methyl(methylsulfonyl)amino]-1-benzofuran-3-carboxamide], for which the values for the IC50 in assay [1] (setting [3]) and in assay [2] (setting [4]) were 315 nM and 214 nM, respectively.
`CNC(=O)c1c(-c2ccc(F)cc2)oc2cc(N(C)S(C)(=O)=O)c([C@@H]3CCCN(C(=O)c4nc5ccccc5o4)C3)cc12` [Example 77, 5-[1-(1,3-benzoxazol-2-ylcarbonyl)piperidin-3-yl]-2-(4-fluorophenyl)-N-methyl-6-[methyl(methylsulfonyl)amino]-1-benzofuran-3-carboxamide]: the figures for the IC50 in assay [1] (setting [3]) and in assay [2] (setting [4]) were 64.3 nM and 19.2 nM, respectively.
With `CNC(=O)c1c(-c2ccc(F)cc2)oc2cc(N(C)S(C)(=O)=O)c([C@@H]3CCCN(S(=O)(=O)c4ccc5ncsc5c4)C3)cc12` [Example 112, 5-[(3S)-1-(1,3-benzothiazol-6-ylsulfonyl)piperidin-3-yl]-2-(4-fluorophenyl)-N-methyl-6-[methyl(methylsulfonyl)amino]-1-benzofuran-3-carboxamide], the IC50 came out at 25 nM in assay [1] (setting [3]) and 6.79 nM in assay [2] (setting [4]).
`CNC(=O)c1c(-c2ccc(F)cc2)oc2cc(N(C)S(C)(=O)=O)c([C@H]3CCCN(S(=O)(=O)c4cccc5nonc45)C3)cc12` [Example 138, 5-[(3R)-1-(2,1,3-benzoxadiazol-4-ylsulfonyl)piperidin-3-yl]-2-(4-fluorophenyl)-N-methyl-6-[methyl(methylsulfonyl)amino]-1-benzofuran-3-carboxamide]: the IC50 in assay [1] (setting [3]) is 139 nM; in assay [2] (setting [4]) it was 55.7 nM.
On to `CNC(=O)c1c(-c2ccc(F)cc2)oc2cc(N(C)S(C)(=O)=O)c([C@H]3CCCN(C(=O)c4cc5cccc(F)c5o4)C3)cc12` [Example 91, (R)-5-(1-(7-fluorobenzofuran-2-carbonyl)piperidin-3-yl)-2-(4-fluorophenyl)-N-methyl-6-(N-methylmethylsulfonamido)benzofuran-3-carboxamide], for which the IC50 in assay [1] (setting [3]) amounted to 180 nM; in assay [2] (setting [4]), 62.6 nM.
In the case of `CNC(=O)c1c(-c2ccc(F)cc2)oc2cc(N(C)S(C)(=O)=O)c([C@@H]3CCCN(C(=O)C=C(C)C)C3)cc12` [Example 63, 2-(4-fluorophenyl)-N-methyl-5-[1-(3-methylbut-2-enoyl)piperidin-3-yl]-6-[methyl(methylsulfonyl)amino]-1-benzofuran-3-carboxamide], the IC50 in assay [1] (setting [3]) came out at 156 nM; in assay [2] (setting [4]) it was 68.1 nM.
